Measurements from US20150352114A1, “MITOTIC KINESIN Eg5 INHIBITING ANTICANCER AGENTS” (THE CLEVELAND CLINIC FOUNDATION, priority 2014, published 2015).

Tests used:
[1] = tested on: glioblastoma stem cells (GSCs); experiment: Dose response cell viability, CellTiter-Glo ATP-based assay, GSCs; details: Homo sapiens, 0 to 32 nM, 72 hours
Source text: Human tissues were acquired from primary human brain tumor patient specimens in accordance with appropriate approved Institutional Review Board protocols. Tumor grade and available cytogenetic information for each specimen has been previously described. Tumor specimens were maintained through subcutaneous xenografts in the flanks of athymic Nu/Nu or NSG mice. Tumors were dissociated using a papain dissociation system (Worthington Biochemical, Lakewood, N.J.). […]
The half maximal effective concentration of ispinesib for acutely dissociated and MACS sorted matched GSCs and NSTCs was determined by plating, in triplicate, 1,000 cells per well of a 96 well plate pre-coated with GelTrex in growth-factor free Neuralbasal media. […] Viability was measured at 72 hours using CellTiter-Glo ATP-based assay (Promega, Madison, Wis.) read on a luminometer (Perkin-Elmer, Waltham, Mass.). […] The next day, cells were exposed to 3 nM ispinesib or vehicle (DMSO) and viability was measured daily for 5 days using CellTiter-Glo. Day 0 reading were taken immediately after addition of drug or vehicle. SubG1 for GSCs and NSTCs was determined by flow cytometry for propidium iodide and gated as the events below the 2N G1 peak of the resulting histogram. […] Cells were fixed at Day 0 through Day 4 in 100% cold ethanol and simultaneously processed for flow analysis with 20,000 events analyzed per condition.

08-387 GSCs = experiment: Transwell in vitro invasion assay; format: cell-based, human
Protocol: 08-387 GSCs enriched in G1 (8 hours post final thymidine release) were pre-exposed to vehicle or ispinesib (200 to 0 nM at a two-fold dilution) for one hour prior to being seeded onto Matrigel coated FluoroBlok Cell Culture Inserts at 125,000 cells per insert (±vehicle or ispinesib, plated in triplicate) with Neurobasal media supplemented with 10% FBS in the lower reservoir (BD Falcon, Franklin Lakes, N.J.). After 8 hours, membranes were processed for analysis with nuclei stained with DAPI. Nuclei on the lower surface of the membrane within the central field were scored using the 20× objective on a Leica DMIRB inverted microscopes.

[2] = tested on: human brain microvascular endothelial cells; experiment: Endothelial tube formation on Matrigel; format: cell-based; details: 200 nM; 6-hour time course
Protocol: Primary Human Brain Microvascular Endothelial Cells were purchased from Cell Systems (Kirkland, Wash.) and used at passages 3 through 6. Cells were maintained in EGM-2 MV media from Lonza (Walkersville, Md.) and stained with CellTracker™ Green CMFDA Dye from Invitrogen (Eugene, Oreg.) for fluorescent imaging. Tube formation assays were performed on Matrigel from Corning (Tewksbury, Mass.) in glass bottom 6-well plates from MatTek (Ashland, Mass.). Cells were plated at a density of 1.3×10^4 per cm^2 and imaged at the indicated times.

Eg5 = target: T1, Eg5 (Homo sapiens, UniProt P52732); details: cited from earlier work
T1 sequence (P52732 1-1056): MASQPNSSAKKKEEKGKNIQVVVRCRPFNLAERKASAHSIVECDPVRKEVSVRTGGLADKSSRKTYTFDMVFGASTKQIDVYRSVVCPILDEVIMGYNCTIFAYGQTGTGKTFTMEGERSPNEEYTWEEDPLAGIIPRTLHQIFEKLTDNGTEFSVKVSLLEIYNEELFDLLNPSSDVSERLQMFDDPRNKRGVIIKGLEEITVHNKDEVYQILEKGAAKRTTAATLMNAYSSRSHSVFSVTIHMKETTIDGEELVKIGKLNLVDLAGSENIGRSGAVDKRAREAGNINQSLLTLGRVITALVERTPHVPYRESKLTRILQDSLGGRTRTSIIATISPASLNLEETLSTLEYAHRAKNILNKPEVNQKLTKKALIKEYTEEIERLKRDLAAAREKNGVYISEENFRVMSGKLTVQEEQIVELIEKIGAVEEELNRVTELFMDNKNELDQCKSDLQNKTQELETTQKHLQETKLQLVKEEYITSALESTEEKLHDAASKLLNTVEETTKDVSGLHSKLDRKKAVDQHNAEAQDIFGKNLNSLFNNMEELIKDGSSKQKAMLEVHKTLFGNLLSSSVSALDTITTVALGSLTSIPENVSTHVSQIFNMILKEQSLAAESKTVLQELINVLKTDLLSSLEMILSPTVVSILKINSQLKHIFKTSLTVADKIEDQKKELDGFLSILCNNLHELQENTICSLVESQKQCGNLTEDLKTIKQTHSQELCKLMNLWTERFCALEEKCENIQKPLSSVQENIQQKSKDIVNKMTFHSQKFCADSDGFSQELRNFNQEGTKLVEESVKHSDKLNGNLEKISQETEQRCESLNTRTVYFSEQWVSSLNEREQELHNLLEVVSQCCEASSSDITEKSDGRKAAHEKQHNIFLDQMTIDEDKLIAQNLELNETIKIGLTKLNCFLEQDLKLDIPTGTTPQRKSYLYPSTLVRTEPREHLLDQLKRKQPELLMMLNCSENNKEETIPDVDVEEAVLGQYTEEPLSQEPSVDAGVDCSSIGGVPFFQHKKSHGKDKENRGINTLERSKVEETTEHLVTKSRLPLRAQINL

cell lines = details: cited from earlier work

Structure (SMILES): Cc1ccc(C(=O)N(CCCN)[C@@H](c2nc3cc(Cl)ccc3c(=O)n2Cc2ccccc2)C(C)C)cc1 [ispinesib, N-(3-amino-propyl)-n-[R-1-(3-benzyl-7-choloro-4-oxo-3,4-dihydroquinazolin-2-yl)-2-methyl-propyl]-4-methyl-benzamide methanesulfonate]
- EC50 [1]: 1.15 ± 0.35 nM
- fewer cells migrated per field compared to vehicle control (08-387 GSCs; 200 nM): approximately 6 fold
- EC50 (08-387 GSCs; Homo sapiens, 8 h, read-out: EC50, Transwell migration): 67.2 nM
- Transwell migration (08-387 GSCs; interphase-enriched cells, 8 hours): completely block
- endothelial tube formation [2]: failed to properly organize into tubes
- selectivity for Eg5 over other kinesins (Eg5): 40,000 times
- efficacy in cell lines tested (cell lines): nanomolar efficacy
